Laboratory results from doi:10.1101/2021.04.12.439490v1 (biorxiv, 2021).

Molecular target: full-length WDR5, C-terminal NanoLuc fusion (WDR5-C) (Homo sapiens, UniProt P61964)
Assay: NanoBRET tracer titration
Format: cell-based

CN1CCN(c2ccc(-c3ccc(C(=O)NCCCOCCOCCOCCCNC(=O)CCc4ccc5n4[B-](F)(F)[N+]4=C(c6ccc[nH]6)C=CC4=C5)cc3)cc2NC(=O)c2c[nH]c(=O)cc2C(F)(F)F)CC1 [19c]
Kd: ~1000 nM
